The source of these data is patent EP3723746B1, “PHENOXY ACIDS FOR THE TREATMENT OF NEUROMUSCULAR DISORDERS” (NMD Pharma A/S, priority 2017, dated 2019).

Assay [1] concerns the target T1, human CIC-1 channels (Homo sapiens, UniProt P35523).
T1 construct: host or cells: CHO cells constitutively expressing human ClC-1
The assay is described as follows: Automated patch-clamp on the human isoform of CIC-1 expressed in CHO cells. Format: cell-based. The note with it: compound added intracellularly vs control cell patches; positive shift reflects CIC-1 inhibition. The procedure:
The investigatory goal of these experiments was to evaluate how compounds affect the open probability and current amplitude of human CIC-1 channels expressed in CHO cells. Experiments were performed using an automated patch clamp system that allowed high throughput testing of whole cell patches together with both intracellular and extracellular addition of compound.
Automated whole cell patch clamp experiments were performed with the Qpatch 16 system (Sophion Bioscience, Ballerup, Denmark) at room temperature. Data acquisition and analysis were performed in the Qassay software (ver. 5.6, Odense).
To evoke CIC-1 currents in whole cell patches, the membrane potential was initially stepped from a holding potential of -30 mV to +60 mV for 100 ms and then to various test voltages (sweeps) ranging from +120 mV to -140 mV in steps of 20 mV for 300 ms. To obtain tail currents, the membrane potential was stepped to -100 mV after each test voltage for 300 ms and then relaxed to -30 mV for 2 sec between sweeps (Figure 3). I/V relationships for whole cell instant and steady state current amplitudes were obtained by plotting average current densities at the beginning and at the end of the 300 ms step against the membrane potential (Figure 4).
In order to determine the relative overall open probability (P0), the instantaneous tail currents were normalized to the maximal tail current obtained following the most positive voltage step and plotted against the test voltage. Plots of normalized tail currents from each whole cell patch were then fitted to a Boltzmann function allowing determination of half activation voltages (V1/2, Figure 5).
For automated patch clamp experiments extracellular solutions contained: 2 mM CaCl2, 1 mM MgCl2, 10 mM HEPES, 4 mM KCI, 145 mM NaCl, 10 mM Glucose, pH adjusted to 7.4 with NaOH (2 M). Osmolality adjusted to ~320 using sucrose.
Intracellular solutions contained: 80 mM CsF, 60 mM CsCI, 5/1 mM KOH/EGTA, 10 mM HEPES, 10 mM NaCl, pH adjusted to 7.2 with NaOH (2 M). Osmolality adjusted to ~320 mOsm using sucrose.
Cells used in patch clamp experiments were Chinese hamster ovary cells (CHO) constitutively expressing human CIC-1 channels. The amino acid sequence encoded by the cDNA used to create this cell line was identical to the translated sequence for GenBank accession number NM_000083.2. Cells were produced by Charles River (Catalogue CT6175, Cleveland OH, USA) in a cryopreserved format. Experiments were performed on the cells directly after thawing (3 × 10^6 cells used in each experiment).
To evaluate the compound effect on CIC-1, when applied directly to the intracellular side of the cell membrane, the half activation voltage, V1/2, was determined from whole cell patches with compound added to the intracellular solution and then compared to V1/2 determined from control cell patches with only vehicle added to the intracellular solution. Additionally, the effect of extracellular added compound was evaluated by determine V1/2 and steady state current amplitudes before and after exchanging the extracellular solution to contain compound.
The difference in half activation voltage of CIC-1 channels, ΔV1/2, was determined as the difference between the cell patches treated intracellularly with compound and control cells patches and is reported in Table 4 below. A positive shift in ΔV1/2 is reflecting CIC-1 channel inhibition by the tested compound. P-values of <0.05 is considered significant. […]
A general note: In patch-clamp work, channel activity is measured electrically.

The test system of assay [2] is Lewis rats. The assay is described as follows: Measurement of in situ muscle contractile characteristics (isometric hindlimb force under cisatracurium block). Format: in vivo. Conditions: 21.5 mg/kg i.v., cisatracurium infusion, 3 experiments. How it is done:
Isometric hindlimb force was measured in 12-week old female Lewis rats in the presence and absence of compound.
Rats were placed under anesthesia with isoflurane (2-4%), intubated and subsequently connected to a micro ventilator (Microvent 1, Hallowell EMC, US). Two stimulation electrodes were inserted through the skin to stimulate the sciatic nerve. A small incision was made proximal to the ankle, to expose the Achilles tendon, which was tied by cotton string, and connected to a force transducer (Fort250, World Precision Instruments) with adjustable position (Vernier control). The Achilles tendon was then cut distal to the attached cotton string. The rat was placed on a heated pad, and to prevent movement artefacts from contraction of the ankle dorsiflexors, the foot was fixated by tape on a footplate.
Muscle contractile properties were assessed by applying an electrical current (under supramaximal voltage conditions) to the nerve and recording the force generated by the muscle. The muscle was stretched until maximal force was obtained, when assessed by 2 Hz stimulation. Isometric force was measured every 30 seconds at 12 Hz (Twitch), 10 pulses, and at every 5 minutes at 80 Hz (Tetanic) for 1 second (80 pulses). This stimulation pattern was employed throughout the experiment, expect in few cases where 80 Hz stimulation was replaced by 12 Hz (10 pulses). […] When the level of neuromuscular inhibition was stable, the test article was injected i.v. at the chosen concentration. The effect of test article was assessed on its ability to increase force generated from the stimulation pattern applied. The effect was assessed in the ability to increase force per se (tetanic, 80 Hz, stimulation), and the ratio between individual twitch peaks (12 Hz stimulation). The effect was monitored for at least 1 hour after injection of test article. In addition, the time from injection of test article to maximal effect on force (both twitch and tetanic) was noted and the time for the effect to disappear (return to baseline), if possible. When appropriate the infusion of neuromuscular blocking agent was ceased, with the stimulation pattern continued, and the return of force to control levels was monitored. Animals were sacrificed by cervical dislocation while still fully sedated.

The target of assay [3] is T2, CIC-1 channels (Rattus norvegicus, UniProt P35524).
T2 construct: from tissue; host or cells: whole soleus muscle of 12-14 week old Wistar rats
T2 sequence (P35524 1-994): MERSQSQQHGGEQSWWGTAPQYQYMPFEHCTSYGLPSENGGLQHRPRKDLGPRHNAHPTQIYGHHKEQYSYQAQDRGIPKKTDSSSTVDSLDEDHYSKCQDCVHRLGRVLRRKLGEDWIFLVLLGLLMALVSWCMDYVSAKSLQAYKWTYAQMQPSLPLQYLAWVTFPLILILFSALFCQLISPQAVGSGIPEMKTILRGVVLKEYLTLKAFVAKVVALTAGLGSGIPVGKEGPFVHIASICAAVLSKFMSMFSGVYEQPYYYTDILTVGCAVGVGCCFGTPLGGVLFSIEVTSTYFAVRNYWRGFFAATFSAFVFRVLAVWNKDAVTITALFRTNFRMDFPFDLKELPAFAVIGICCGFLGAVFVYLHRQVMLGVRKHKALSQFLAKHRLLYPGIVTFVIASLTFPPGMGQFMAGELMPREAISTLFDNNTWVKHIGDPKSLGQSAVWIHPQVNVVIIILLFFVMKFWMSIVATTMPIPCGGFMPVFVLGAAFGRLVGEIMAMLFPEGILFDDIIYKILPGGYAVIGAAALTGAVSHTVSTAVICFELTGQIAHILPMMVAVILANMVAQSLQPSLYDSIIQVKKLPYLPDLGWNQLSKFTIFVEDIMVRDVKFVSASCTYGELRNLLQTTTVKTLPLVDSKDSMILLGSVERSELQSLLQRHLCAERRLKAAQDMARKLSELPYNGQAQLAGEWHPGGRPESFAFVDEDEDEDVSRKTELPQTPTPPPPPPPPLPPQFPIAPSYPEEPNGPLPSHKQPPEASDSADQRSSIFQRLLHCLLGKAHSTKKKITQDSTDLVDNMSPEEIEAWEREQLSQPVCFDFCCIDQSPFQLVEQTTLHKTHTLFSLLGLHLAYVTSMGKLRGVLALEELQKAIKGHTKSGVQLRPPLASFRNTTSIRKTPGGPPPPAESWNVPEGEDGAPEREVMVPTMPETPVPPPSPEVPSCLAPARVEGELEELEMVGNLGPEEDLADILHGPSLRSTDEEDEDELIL
Description: Electrophysiological measurement of compound inhibition of CIC-1 in rat muscle (Gm, three micro-electrode technique, soleus muscle fibres). Format: cell-based. Conditions: reduction of Gm in rat soleus muscle fibres, approx. 30°C; mean ± spread, n = number of experiments. The source says:
Table 2: Inhibition of CIC-1 ion channel using compounds of the invention

Assay [4] relates to soleus muscles. The assay is described as follows: Measurement of force in an in vitro model: recovery of contractile force of isolated rat soleus nerve-muscle preparation after tubocurarine. Conditions: Rattus norvegicus, 40 min; 50 µM test compound, after 90 mins 115 nM tubocurarine; percentage of the initial force restored after 40 mins of compound exposure; read-out: Point increase. The procedure: Recovery of force is quantified as the percentage of the force prior to tubocurarine that is recovered by the compound.
The current invention relates to compounds that inhibit CIC-1 ion channels and increase muscle excitability and thereby improve muscle function in clinical conditions where muscle activation is failing. Such conditions result in loss of contractile function of skeletal muscle, weakness and excessive fatigue. In this series of experiments the compounds were tested for their ability to restore contractile function of isolated rat muscle when the neuromuscular transmission had been compromised akin to neuromuscular disorders.
Experimentally, soleus muscles from 4-5 week old rats were isolated with the motor nerve remaining attached. The nerve-muscle preparations were mounted in experimental setups that enabled electrical stimulation of the motor nerve. Stimulation of the motor nerve led to activation of the muscle fibres and ensuing force production that was recorded.
After mounting the nerve-muscle preparation in the experimental setup, the contractile function of the muscle was initially assessed under the control conditions (Figure 2A). […] The experimental condition mimics the failing neuromuscular transmission in a range of neuromuscular disorders. After addition of tubocurarine the contractile force declined over the next 90 mins to 10-50 % of the control force. 50 µM of the test compound was then added and the contractile force recovered despite the continued presence of tubocurarine. To quantify the ability of the compound to restore force the percentage of the initial force that was restored was determined after 40 mins of compound exposure (Figure 2B) and the point increase is reported in Table 3. Table 3: Percentage increase of initial force that was restored

Each structure is given as a SMILES string.

T1 sequence (P35523 whole entry): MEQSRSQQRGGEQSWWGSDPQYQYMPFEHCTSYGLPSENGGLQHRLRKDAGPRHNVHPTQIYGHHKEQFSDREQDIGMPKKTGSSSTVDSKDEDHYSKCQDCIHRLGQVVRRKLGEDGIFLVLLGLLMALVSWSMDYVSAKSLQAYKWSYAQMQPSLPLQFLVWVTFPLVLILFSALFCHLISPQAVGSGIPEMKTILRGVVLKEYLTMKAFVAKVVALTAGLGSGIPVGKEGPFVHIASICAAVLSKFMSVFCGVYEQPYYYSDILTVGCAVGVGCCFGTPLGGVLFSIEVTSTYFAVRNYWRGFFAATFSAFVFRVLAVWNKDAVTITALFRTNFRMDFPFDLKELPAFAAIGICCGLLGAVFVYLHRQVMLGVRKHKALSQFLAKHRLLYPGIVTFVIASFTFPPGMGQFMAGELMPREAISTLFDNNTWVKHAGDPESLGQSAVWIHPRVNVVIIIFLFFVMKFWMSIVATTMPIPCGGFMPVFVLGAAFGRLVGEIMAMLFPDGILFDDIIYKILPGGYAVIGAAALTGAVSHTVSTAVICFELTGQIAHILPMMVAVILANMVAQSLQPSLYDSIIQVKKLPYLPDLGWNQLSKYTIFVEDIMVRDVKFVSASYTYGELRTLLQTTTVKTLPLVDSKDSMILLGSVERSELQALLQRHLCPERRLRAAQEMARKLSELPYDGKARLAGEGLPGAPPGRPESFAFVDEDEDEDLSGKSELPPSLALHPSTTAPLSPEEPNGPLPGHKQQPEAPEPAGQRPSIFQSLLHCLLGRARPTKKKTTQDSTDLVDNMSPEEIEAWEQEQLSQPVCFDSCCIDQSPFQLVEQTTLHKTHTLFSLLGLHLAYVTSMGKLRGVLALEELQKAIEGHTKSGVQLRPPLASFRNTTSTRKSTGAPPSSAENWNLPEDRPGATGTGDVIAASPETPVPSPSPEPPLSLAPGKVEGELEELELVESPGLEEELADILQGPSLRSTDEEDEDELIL

In the case of `C[C@H](Oc1ccc(Br)cc1C1CC1)C(=O)O` [Compound A-2, (2S)-2-(4-bromo-2-cyclopropylphenoxy)propanoic acid], the ΔV1/2 in assay [1] came out at 9.2 mV. The “change in twitch peaks” value in assay [2] (12 Hz stimulation) was “no significant change”. The “average increase in tetanic force” value in assay [2] (80 Hz stimulation) amounted to 28.5%.
On to `C[C@H](Oc1ccc(Cl)cc1C1CC1)C(=O)O` [Compound A-4, (2S)-2-(4-chloro-2-cyclopropylphenoxy)propanoic acid], for which the ΔV1/2 in assay [1] was found to be 8.8 mV.
The compound `C[C@H](Oc1ccc(Br)cc1C1CCC1)C(=O)O` [Compound A-14, (2S)-2-(4-bromo-2-cyclobutylphenoxy)propanoic acid] displayed an EC50 in assay [3] of 4.3 ± 2.3 µM. For the same compound, the activation at 50 µM in assay [4] was 17%.
In the case of `C=Cc1cc(Br)ccc1O[C@@H](C)C(=O)O` [Compound A-17, (2S)-2-(4-bromo-2-ethenylphenoxy)propanoic acid], the ΔV1/2 in assay [1] came to 10.3 mV. This compound also gave an EC50 in assay [3] of 4.2 ± 0.7 µM. Further, the activation at 50 µM in assay [4] turned out to be 21%.
In the case of `C#Cc1cc(Cl)ccc1O[C@@H](C)C(=O)O` [Compound A-20, (2S)-2-(4-chloro-2-ethynylphenoxy)propanoic acid], the ΔV1/2 in assay [1] is listed as 26.4 mV.
In the case of `[2H]C([2H])(C)C(=O)c1cc(Cl)ccc1O[C@@H](C)C(=O)O` [Compound A-27, (2S)-2-{4-chloro-2-[(2,2-^2H2)propanoyl]phenoxy}propanoic acid], the EC50 in assay [3] turned out to be 8.3 µM. The activation at 50 µM in assay [4] was found to be 36%.
Consider `CCC(=O)c1cc(Cl)ccc1O[C@@H](C)C(=O)O` [Compound A-30, (2S)-2-(4-chloro-2-propanoylphenoxy)propanoic acid], for which, in assay [1], the ΔV1/2 worked out at 6.2 mV.
In the case of `C[C@H](Oc1ccc(Br)cc1C=C(F)F)C(=O)O` [Compound A-36, (2S)-2-[4-bromo-2-(2,2-difluoroethenyl)phenoxy]propanoic acid], in assay [1], the ΔV1/2 was 21.5 mV. The compound further showed an EC50 in assay [3] of 3.7 µM. In addition, in assay [4], the activation at 50 µM was found to be 16%.
In the case of `C[C@H](Oc1cc(F)c(Br)cc1C1CC1)C(=O)O` [Compound A-44, (2S)-2-(4-bromo-2-cyclopropyl-5-fluorophenoxy)propanoic acid], the activation at 50 µM in assay [4] was 12%.
`C#Cc1cc(Br)ccc1O[C@H](C(=O)O)C1CCC1` [Compound A-46, (2S)-2-(4-bromo-2-ethynylphenoxy)-2-cyclobutylacetic acid] registered a half-maximal effective concentration (EC50) in assay [3] of 6.1 µM.
As to `C#Cc1cc(Br)c(F)cc1O[C@@H](C)C(=O)O` [Compound A-47, (2S)-2-(4-bromo-2-ethynyl-5-fluorophenoxy)propanoic acid], in assay [4], the activation at 50 µM worked out at 15%.
Turning to `C#Cc1cc(Cl)c(F)cc1O[C@@H](C)C(=O)O` [Compound A-48, (2S)-2-(4-chloro-2-ethynyl-5-fluorophenoxy)propanoic acid], the activation at 50 µM in assay [4] was found to be 14%.
As for `C=Cc1cc(Br)ccc1O[C@@H](CCF)C(=O)O` [Compound A-51, (2S)-2-(4-bromo-2-ethenylphenoxy)-4-fluorobutanoic acid], the EC50 in assay [3] was found to be 4 ± 3 µM. Moreover, in assay [4], the activation at 50 µM was 27%.
Regarding `C[C@H](Oc1ccc(Br)cc1/C=C/F)C(=O)O` [Compound A-52, (2S)-2-{4-bromo-2-[(1E)-2-fluoroethenyl]phenoxy}propanoic acid], the half-maximal effective concentration (EC50) in assay [3] stood at 3 µM. That is a single-digit micromolar value.
In assay [3], `C#Cc1cc(Br)ccc1O[C@@H](CC)C(=O)O` [Compound A-54, (2S)-2-(4-bromo-2-ethynylphenoxy)butanoic acid] displayed an EC50 of 7.2 ± 3.5 µM. For the same compound, in assay [4], the activation at 50 µM was determined as 18%.
For `O=C(O)COc1ccc(Br)cc1C1CC1` [Compound A-55, 2-(4-bromo-2-cyclopropylphenoxy)acetic acid], in assay [3], the concentration for a half-maximal effect (EC50) is 6.4 µM. Besides, the activation at 50 µM in assay [4] was 25%.
`C#Cc1cc(Br)ccc1OCC(=O)O` [Compound A-56, 2-(4-bromo-2-ethynylphenoxy)acetic acid]: the activation at 50 µM in assay [4] was 14%.

By EC50 is commonly meant the concentration needed to bring the measured effect to its halfway point. Higher therefore signals lower potency in that assay.
